Measured values as given in article PMC11507521, “Pyrimidine Derivatives as Selective COX-2 Inhibitors with Anti-Inflammatory and Antioxidant Properties” (International Journal of Molecular Sciences, 2024).

Target: T1, human serum albumin (HSA) (Homo sapiens, UniProt P02768)
T1 construct: gene ALB; serum albumin in HEPES pH 7.4
Test: UV-Vis titration, Benesi-Hildebrand
Format: binding
Settings: HEPES pH 7.4, 25 °C, DMSO < 1%
Description: UV-Vis titration, Benesi-Hildebrand on human serum albumin (HSA)

T1 sequence (P02768 25-609): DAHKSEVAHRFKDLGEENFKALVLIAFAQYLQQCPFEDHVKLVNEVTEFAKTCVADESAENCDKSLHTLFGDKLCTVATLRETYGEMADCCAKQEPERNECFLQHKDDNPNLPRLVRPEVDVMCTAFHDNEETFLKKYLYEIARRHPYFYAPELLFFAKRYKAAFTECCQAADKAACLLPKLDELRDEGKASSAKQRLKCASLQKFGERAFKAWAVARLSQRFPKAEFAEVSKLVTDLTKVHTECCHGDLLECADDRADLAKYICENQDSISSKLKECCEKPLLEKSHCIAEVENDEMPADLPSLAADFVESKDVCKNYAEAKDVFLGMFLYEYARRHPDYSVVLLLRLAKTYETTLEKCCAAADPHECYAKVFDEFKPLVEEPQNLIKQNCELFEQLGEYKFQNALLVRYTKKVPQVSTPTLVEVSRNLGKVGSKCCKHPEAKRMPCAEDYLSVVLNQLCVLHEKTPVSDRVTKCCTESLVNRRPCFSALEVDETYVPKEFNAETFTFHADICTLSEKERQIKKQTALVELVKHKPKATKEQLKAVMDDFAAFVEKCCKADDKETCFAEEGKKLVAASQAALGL

| SMILES | binding constant (Kb) to HSA | binding constant (Kb) |
| --- | --- | --- |
| COc1ccc2c(c1)CCCC2=NNc1cc(NCCN(C)C)ncn1 [L2] | 4.54 × 10^5 dm^3/mol |  |
| COc1ccc2c(c1)CCCC2=NNc1cc(NCCCN(C)C)ncn1 [L4] |  | 6.82 × 10^4 dm^3/mol |
| CCN(CC)CCNc1cc(NN=C2CCCc3cc(OC)ccc32)ncn1 [L1] | 9.92 × 10^4 dm^3/mol |  |
